Reference: patent US6221865A, “Inhibitors of protein isoprenyl transferases” (priority 1998, dated 2001)
Structures can show the parent of a compound that is named as a salt.

Target: T1, protein farnesyltransferase (Rattus norvegicus, UniProt Q02293+Q04631)
T1 construct: The enzyme is purified according to Reiss, Y., et al., Cell, 62: 81-88 (1990), utilizing steps one through three; from tissue; host or cells: rat brain
Assay: Inhibition of farnesyltransferase (scintillation proximity assay, rat brain enzyme, biotin-K Ras B fragment substrate)
Format: biochemical
Details: for inhibition at 1 µM: read-out: % inhibition of farnesyltransferase at 1 × 10^-6 M; for inhibition at 1 µM / % inhibition of farnesyltransferase at 1 × 10^-6 M: 1 × 10^-6 M (Table 2); for % inhibition of farnesyltransferase at 1 × 10^-5 M: 1 × 10^-5 M (Table 1); for % inhibition of farnesyltransferase at 1 × 10^-7 M / inhibition at 0.1 µM: 1 × 10^-7 M (Table 3); for inhibition at 0.1 µM: read-out: % inhibition of farnesyltransferase at 1 × 10^-7 M
Description: The ability of the compounds of the invention to inhibit protein farnesyltransferase or protein geranylgeranyltransferase can be measured according to the method of Moores, et al., J. Biol. Chem. 266: 14603 (1991) or the method of Vogt, et al., J. Biol. Chem. 270:660-664 (1995). In addition, procedures for determination of the inhibition of farnesylation of the oncogene protein Ras are described by Goldstein, et al., J. Biol. Chem., 266:15575-15578 (1991) and by Singh in U.S. Pat. No. 5,245,061.
In addition, in vitro inhibition of protein farnesyltransferase may be measured by the following procedure. Rat brain protein farnesyltransferase activity is measured using an Amersham Life Science commercial scintillation proximity assay kit and substituting a biotin-K Ras B fragment (biotin-[…]Ble-Met-CO2 H), […] final concentration, for the biotin-lamin substrate provided by Amersham. The enzyme is purified according to Reiss, Y., et al., Cell, 62: 81-88 (1990), utilizing steps one through three.
The % inhibition of protein farnesyltransferase was determined for representative compounds of the invention.

T1 sequence (Q02293 whole entry, one chain of several): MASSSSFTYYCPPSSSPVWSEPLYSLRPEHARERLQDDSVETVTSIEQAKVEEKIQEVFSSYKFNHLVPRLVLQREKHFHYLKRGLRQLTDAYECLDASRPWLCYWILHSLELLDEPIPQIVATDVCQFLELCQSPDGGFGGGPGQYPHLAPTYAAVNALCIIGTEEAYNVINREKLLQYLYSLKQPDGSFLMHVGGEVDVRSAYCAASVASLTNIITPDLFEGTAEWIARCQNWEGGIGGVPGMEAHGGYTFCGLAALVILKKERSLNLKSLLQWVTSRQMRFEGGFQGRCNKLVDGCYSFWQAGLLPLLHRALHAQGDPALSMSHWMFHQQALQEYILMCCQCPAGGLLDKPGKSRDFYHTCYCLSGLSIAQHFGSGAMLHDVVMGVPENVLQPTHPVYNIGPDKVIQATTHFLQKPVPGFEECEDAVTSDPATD

## Cc1ccccc1-c1cc(CN(C2CC2)C2(Cc3ccccc3)CCCC2)ccc1C(=O)N[C@@H](CCS(C)(=O)=O)C(=O)O [Example 345]
  inhibition at 1 µM: 91%

## Cc1ccccc1-c1cc(CN(C2CC2)C2(CC3CCCCC3)CCCC2)ccc1C(=O)N[C@@H](CCS(C)(=O)=O)C(=O)O [Example 346]
  inhibition at 1 µM: 98%

## CSCC[C@H](NC(=O)c1ccc(CN2C(=O)OC[C@@H]2CC2CCCCC2)cc1-c1ccccc1C)C(=O)O [Example 349, [4-(5-cyclohexylmethyloxazolid-2-on-1-ylmethyl)-2-(2-methylphenyl)benzoyl]methionine]
  inhibition at 1 µM: 99%

## CCn1cc(NCc2ccc(C(=O)N[C@@H](CCSC)C(=O)O)c(-c3ccccc3)c2)c(=O)n1CC [Example 364]
  % inhibition of farnesyltransferase at 1 × 10^-5 M: 69%

## CSCC[C@H](NC(=O)c1ccc(CNCCN2CCOCC2)cc1-c1ccccc1)C(=O)O [Example 365]
  % inhibition of farnesyltransferase at 1 × 10^-5 M: 97%

## CSCC[C@H](NC(=O)c1ccc(CNCCN2CCCCC2)cc1-c1ccccc1)C(=O)O [Example 366]
  % inhibition of farnesyltransferase at 1 × 10^-5 M: 83%

## CSCC[C@H](NC(=O)c1ccc(CNCCc2cccs2)cc1-c1ccccc1)C(=O)O [Example 369]
  % inhibition of farnesyltransferase at 1 × 10^-5 M: 87%

## CSCC[C@H](NC(=O)c1ccc(CNc2cc[nH]n2)cc1-c1ccccc1)C(=O)O [Example 370]
  % inhibition of farnesyltransferase at 1 × 10^-5 M: 86%

## CSCC[C@H](NC(=O)c1ccc(CNc2nnc(C)s2)cc1-c1ccccc1)C(=O)O [Example 371]
  % inhibition of farnesyltransferase at 1 × 10^-5 M: 66%

## CSCC[C@H](NC(=O)c1ccc(CNc2cc(C)on2)cc1-c1ccccc1)C(=O)O [Example 372]
  % inhibition of farnesyltransferase at 1 × 10^-5 M: 69%

## CSCC[C@H](NC(=O)c1ccc(CNc2cc(C)ns2)cc1-c1ccccc1)C(=O)O [Example 373]
  % inhibition of farnesyltransferase at 1 × 10^-5 M: 76%

## CSCC[C@H](NC(=O)c1ccc(CNc2nccs2)cc1-c1ccccc1)C(=O)O [Example 374]
  % inhibition of farnesyltransferase at 1 × 10^-5 M: 61%

## CSCC[C@H](NC(=O)c1ccc(CNCCCN2CCOCC2)cc1-c1ccccc1)C(=O)O [Example 377]
  % inhibition of farnesyltransferase at 1 × 10^-5 M: 71%

## CSCC[C@H](NC(=O)c1ccc(CNc2cc(C(C)(C)C)[nH]n2)cc1-c1ccccc1)C(=O)O [Example 381]
  % inhibition of farnesyltransferase at 1 × 10^-5 M: 79%

## CCSC[C@H](CC1CCCCC1)NCc1ccc(C(=O)N[C@@H](CCSC)C(=O)O)c(-c2ccccc2C)c1 [Example 403]
  % inhibition of farnesyltransferase at 1 × 10^-6 M: 99%

## CSCC[C@H](NC(=O)c1ccc(COCCC23CC4CC(CC(C4)C2)C3)cc1-c1ccccc1C)C(=O)O [Example 404]
  % inhibition of farnesyltransferase at 1 × 10^-6 M: 98%

## CSCC[C@H](NC(=O)c1ccc(COCCCC2CCCCC2)cc1-c1ccccc1C)C(=O)O [Example 405]
  % inhibition of farnesyltransferase at 1 × 10^-6 M: 98%

## CSCC[C@H](NC(=O)c1ccc(CN(Cc2ccccc2)c2ccccc2)cc1-c1ccccc1C)C(=O)O [Example 406]
  % inhibition of farnesyltransferase at 1 × 10^-6 M: 95%

## CSCC[C@H](NC(=O)c1ccc(COCc2ccc(Br)o2)cc1-c1ccccc1C)C(=O)[O-].[Li+] [Example 434]
  % inhibition of farnesyltransferase at 1 × 10^-7 M: 93%

## CSCC[C@H](NC(=O)c1ccc(COCc2ccc(CN(C)C)o2)cc1-c1ccccc1C)C(=O)O [Example 435]
  % inhibition of farnesyltransferase at 1 × 10^-6 M: 96%

## CSCC[C@H](NC(=O)c1ccc(COCc2ccc(-c3cccc(F)c3)o2)cc1-c1ccccc1C)C(=O)[O-].[Li+] [Example 436]
  % inhibition of farnesyltransferase at 1 × 10^-7 M: 89%

## CSCC[C@H](NC(=O)c1ccc(COCc2ccc(-c3ccccc3F)o2)cc1-c1ccccc1C)C(=O)[O-].[Li+] [Example 437]
  % inhibition of farnesyltransferase at 1 × 10^-7 M: 89%

## CSCC[C@H](NC(=O)c1ccc(COCc2ccc(-c3ccccc3C(F)(F)F)o2)cc1-c1ccccc1C)C(=O)[O-].[Li+] [Example 438]
  % inhibition of farnesyltransferase at 1 × 10^-7 M: 90%

## CSCC[C@H](NC(=O)c1ccc(COCc2ccc(-c3cccc([N+](=O)[O-])c3)o2)cc1-c1ccccc1C)C(=O)[O-].[Li+] [Example 440]
  % inhibition of farnesyltransferase at 1 × 10^-7 M: 92%

## CSCC[C@H](NC(=O)c1ccc(COCc2ccc(-c3cccc(C(F)(F)F)c3)o2)cc1-c1ccccc1C)C(=O)[O-].[Li+] [Example 441]
  % inhibition of farnesyltransferase at 1 × 10^-7 M: 91%

## COc1cccc(-c2ccc(COCc3ccc(C(=O)N[C@@H](CCSC)C(=O)[O-])c(-c4ccccc4C)c3)o2)c1.[Li+] [Example 442]
  % inhibition of farnesyltransferase at 1 × 10^-7 M: 88%

## CSCC[C@H](NC(=O)c1ccc(COCc2ccc(-c3ccc(Cl)cc3)o2)cc1-c1ccccc1C)C(=O)O [Example 443]
  % inhibition of farnesyltransferase at 1 × 10^-7 M: 97%

## CSCC[C@H](NC(=O)c1ccc(COCc2ccc(-c3ccc(C(F)(F)F)cc3)o2)cc1-c1ccccc1C)C(=O)[O-].[Li+] [Example 445]
  % inhibition of farnesyltransferase at 1 × 10^-7 M: 94%

## COc1ccc(-c2ccc(COCc3ccc(C(=O)N[C@@H](CCSC)C(=O)[O-])c(-c4ccccc4C)c3)o2)cc1.[Li+] [Example 446]
  % inhibition of farnesyltransferase at 1 × 10^-7 M: 91%

## CSCC[C@H](NC(=O)c1ccc(COCc2ccc(-c3ccc(SC)cc3)o2)cc1-c1ccccc1C)C(=O)[O-].[Li+] [Example 447]
  % inhibition of farnesyltransferase at 1 × 10^-7 M: 91%

## CSCC[C@H](NC(=O)c1ccc(COCc2ccc(-c3ccc(C=O)cc3)o2)cc1-c1ccccc1C)C(=O)[O-].[Li+] [Example 448]
  % inhibition of farnesyltransferase at 1 × 10^-7 M: 92%

## CSCC[C@H](NC(=O)c1ccc(COCc2ccc(-c3ccc(C(C)=O)cc3)o2)cc1-c1ccccc1C)C(=O)[O-].[Li+] [Example 449]
  % inhibition of farnesyltransferase at 1 × 10^-7 M: 91%

## CSCC[C@H](NC(=O)c1ccc(CCc2ccccc2-c2ccccc2)cc1-c1ccccc1C)C(=O)O [Example 452, N-[4-(2-(2-phenylphenyl)ethyl)-2-(2-methylphenyl)benzoyl]methionine lithium salt]
  inhibition at 1 µM: 96%

## CSCC[C@H](NC(=O)c1ccc(C=Cc2ccccc2Oc2ccccc2)cc1-c1ccccc1C)C(=O)O [Example 453, N-[4-(2-(2-phenoxyphenyl)ethen-1-yl)-2-(2-methylphenyl)benzoyl]methionine lithium salt]
  inhibition at 1 µM: 90%

## CSCC[C@H](NC(=O)c1ccc(CCc2ccccc2Oc2ccccc2)cc1-c1ccccc1C)C(=O)O [Example 455, N-[4-(2-(2-phenoxyphenyl)ethyl)-2-(2-methylphenyl)benzoyl]methionine lithium salt]
  inhibition at 0.1 µM: 83%

## Cc1ccccc1-c1cc(CCc2ccccc2Oc2ccccc2)ccc1C(=O)N[C@@H](CC[S+](C)[O-])C(=O)O (stereo partly shown) [Example 456, N-[4-(2-(2-phenoxyphenyl)ethyl)-2-(2-methylphenyl)benzoyl]-2-amino-4-methylsulfinylbutanoic acid lithium salt]
  inhibition at 1 µM: 81%

## CSCC[C@H](NC(=O)c1ccc(C=Cc2ccccc2Cc2ccccc2)cc1-c1ccccc1C)C(=O)O [Example 457, N-[4-(2-(2-benzylphenyl)ethenyl)-2-(2-methylphenyl)benzoyl]methionine lithium salt]
  inhibition at 1 µM: 92%

## CSCC[C@H](NC(=O)c1ccc(CCc2ccccc2Cc2ccccc2)cc1-c1ccccc1C)C(=O)O [Example 458, lithium salt]
  inhibition at 0.1 µM: 87%

## CSCC[C@H](NC(=O)c1ccc(CCc2cccc(Oc3ccccc3)c2)cc1-c1ccccc1C)C(=O)O [Example 459, N-[4-(2-(3-phenoxyphenyl)ethyl)-2-(2-methylphenyl)benzoyl]methionine lithium salt]
  inhibition at 0.1 µM: 92%

## Cc1ccccc1-c1cc(CCc2cccc(Oc3ccccc3)c2)ccc1C(=O)N[C@@H](CC[S+](C)[O-])C(=O)O (stereo partly shown) [Example 460, N-[4-(2-(3-phenoxyphenyl)ethyl)-2-(2-methylphenyl)benzoyl]-2-amino-4-methylsulfinylbutanoic acid lithium salt]
  inhibition at 1 µM: 88%

## CSCC[C@H](NC(=O)c1ccc(CCc2ccc(C3CCCCC3)cc2)cc1-c1ccccc1C)C(=O)O [Example 461, N-[4-(2-(4-cyclohexylphenyl)ethyl)-2-(2-methylphenyl)benzoyl]methionine lithium salt]
  inhibition at 0.1 µM: 93%

## CSCC[C@H](NC(=O)c1ccc(CCc2ccc(Oc3ccccc3)cc2)cc1-c1ccccc1C)C(=O)O [Example 462, N-[4-(2-(4-phenoxyphenyl)ethyl)-2-(2-methylphenyl)benzoyl]methionine lithium salt]
  inhibition at 0.1 µM: 91%

## Cc1ccccc1-c1cc(CCc2ccc(Oc3ccccc3)cc2)ccc1C(=O)N[C@@H](CC[S+](C)[O-])C(=O)O (stereo partly shown) [Example 463, N-[4-(2-(4-phenoxyphenyl)ethyl)-2-(2-methylphenyl)benzoyl]-2-amino-4-methylsulfinylbutanoic acid lithium salt]
  inhibition at 1 µM: 91%
